From publication PMC10997755, “Discovery of a small-molecule inhibitor that traps Polθ on DNA and synergizes with PARP inhibitors” (Nature Communications, 2024)
Where “and” joins values, the source holds several entries; their conditions need not be identical. Identical values can stand only once.

Columns and labels:
Brca1-WT MEFs = assay: Clonogenic assay; assay type: cell-based, mouse; details: for pooled Average (normalized) / Normalized: MEF WT; for pooled Average (normalized): pooled average of 3 experiments; for Normalized: single experiments 1-3, 0 micro M = 100; for survival relative to 0 uM / survival relative to 0 uM, mean of the four experiments: WT; for survival relative to 0 uM: experiments 2023-04-07 and 2023-04-13; for survival relative to 0 uM, mean of the four experiments: last block without head (mean of 4)
Method: (§1) Cells were plated on six or twelve or twenty-four well plates. In six well plate, 1000 cells/ well of BRCA2 -/-, BRCA1 -/-, PALB2 mut and 500 cells/ well of wildtype pair was plated; In twelve well plate, 600 cells/ well of BRCA2 -/-, BRCA1 -/-, PALB2 mut and 400 cells/ well of wildtype pair was plated; In twenty-four well plate, 500 cells/ well of BRCA2 -/-, BRCA1 -/-, PALB2 mut and 300 cells/ well of wildtype pair was plated. […] The medium was replaced every 2 days until the colonies were ready for staining in 10–12 days. For staining: Medium was removed from plates, and cells were rinsed with PBS. Fixation was carried out with—Water: Ethanol: Acetic acid (5:4:1) for 30 min followed by staining of colonies with 0.5% crystal violet in Water: Ethanol (3:2) for 2 h at room temperature. The plates were rinsed with water and left for drying overnight at room temperature. Colonies were then counted and IC50 was calculated using results from 3 or more independent experiments. Response curves are shown as mean colony formation +/- S.E.M.

Brca1^CC/CC MEFs = assay: Clonogenic assay; assay type: cell-based, mouse; details: for pooled Average (normalized) / Normalized: MEF CC; for pooled Average (normalized): pooled average of 3 experiments; for Normalized: single experiments 1-3, 0 micro M = 100; for survival relative to 0 uM / survival relative to 0 uM, mean of the four experiments: cc; for survival relative to 0 uM: 150 cells/well, experiments 2023-04-07 and 2023-04-13; for survival relative to 0 uM, mean of the four experiments: last block without head (mean of 4)
Method: as §1

[1] = test system: Brca1^CC/CC;Polq^-/- cells; assay: Clonogenic assay; assay type: cell-based, mouse; details: for survival relative to 0 uM / survival relative to 0 uM, mean of the four experiments: cc POLQ KO; for survival relative to 0 uM: experiments 2023-04-07 and 2023-04-13; for survival relative to 0 uM, mean of the four experiments: last block without head (mean of 4)
Method: as §1, with “[…],” for “1000 cells/ well of BRCA2 -/-,”, “[…];” for “PALB2 mut and 500 cells/ well of wildtype pair was plated;”, “[…],” for “600 cells/ well of BRCA2 -/-,”, “[…],” for “500 cells/ well of BRCA2 -/-,”

Polε = assay: Primer extension by recombinant Pols (selectivity); assay type: biochemical
VC8 cells = assay: Clonogenic assay; assay type: cell-based, Chinese hamster; details: for percent suvival: VC8 cells
Method: Cells were plated on six or twelve or twenty-four well plates. In six well plate, 1000 cells/ well of BRCA2 -/-, BRCA1 -/-, PALB2 mut and 500 cells/ well of wildtype pair was plated; In twelve well plate, 600 cells/ well of BRCA2 -/-, BRCA1 -/-, PALB2 mut and 400 cells/ well of wildtype pair was plated; In twenty-four well plate, 500 cells/ well of BRCA2 -/-, BRCA1 -/-, PALB2 mut and 300 cells/ well of wildtype pair was plated. For MEFs, 300 cells per well in six-well plate were seeded. The medium was replaced every 2 days until the colonies were ready for staining in 10–12 days. For staining: Medium was removed from plates, and cells were rinsed with PBS. Fixation was carried out with—Water: Ethanol: Acetic acid (5:4:1) for 30 min followed by staining of colonies with 0.5% crystal violet in Water: Ethanol (3:2) for 2 h at room temperature. The plates were rinsed with water and left for drying overnight at room temperature. Colonies were then counted and IC50 was calculated using results from 3 or more independent experiments. Response curves are shown as mean colony formation +/- S.E.M.
Data are expressed as mean ± SEM from at least 3 independent experiments with triplicates for each condition unless stated otherwise. When conducting comparison between two groups, two-tailed unpaired t-test was used. Significance was assumed at p < 0.05. Asterisks in the figures indicate significance, ^∗p < 0.05, ^∗∗p < 0.01, ^∗∗∗p < 0.001. Combenefit® software version 2.021 was used to perform synergy analyses for drug combinations between RTx-161 and PARPi. GraphPad Prism 9 software was used to calculate IC50.

[2] = 150 cells/well, RTx-161 1.25 uM
[3] = 300 cells/well, RTx-161 1.25 uM

SMILES: CN(C(=O)Oc1c(N2CCN(CCO)C2=O)cc(C(F)(F)F)cc1C(F)(F)F)c1ccc(F)cc1 [RTx-161]
- pooled Average (normalized) (Brca1-WT MEFs; RTX-161 2.5 micro M): 86.6767
- Normalized (Brca1-WT MEFs; RTX-161 2.5 micro M): 94.0299 and 78.7879 and 87.2314
- pooled Average (normalized) (Brca1-WT MEFs; RTX-161 5 micro M): 84.2267
- Normalized (Brca1-WT MEFs; RTX-161 5 micro M): 88.0597 and 81.8182 and 82.8237
- pooled Average (normalized) (Brca1-WT MEFs; RTX-161 10 micro M): 87.7867
- Normalized (Brca1-WT MEFs; RTX-161 10 micro M): 100 and 72.7273 and 90.6469
- pooled Average (normalized) (Brca1-WT MEFs; RTX-161 20 micro M): 78.36
- Normalized (Brca1-WT MEFs; RTX-161 20 micro M): 65.6716 and 68.1818 and 101.237
- survival relative to 0 uM (Brca1-WT MEFs; [2]): 95.92% and 83.78%
- survival relative to 0 uM (Brca1-WT MEFs; 150 cells/well, RTx-161 2.5 uM): 108.16% and 89.19%
- survival relative to 0 uM (Brca1-WT MEFs; 150 cells/well, RTx-161 5 uM): 104.08% and 81.08%
- survival relative to 0 uM (Brca1-WT MEFs; 150 cells/well, RTx-161 10 uM): 102.04% and 78.38%
- survival relative to 0 uM (Brca1-WT MEFs; 150 cells/well, RTx-161 20 uM): 87.76% and 86.49%
- survival relative to 0 uM (Brca1-WT MEFs; [3]): 109.62% and 92.19%
- survival relative to 0 uM (Brca1-WT MEFs; 300 cells/well, RTx-161 2.5 uM): 88.46% and 93.75%
- survival relative to 0 uM (Brca1-WT MEFs; 300 cells/well, RTx-161 5 uM): 92.31% and 106.25%
- survival relative to 0 uM (Brca1-WT MEFs; 300 cells/well, RTx-161 10 uM): 96.15% and 100.00%
- survival relative to 0 uM (Brca1-WT MEFs; 300 cells/well, RTx-161 20 uM): 103.85% and 96.88%
- survival relative to 0 uM, mean of the four experiments (Brca1-WT MEFs; RTx-161 1.25 uM): 95.38%
- survival relative to 0 uM, mean of the four experiments (Brca1-WT MEFs; RTx-161 2.5 uM): 94.89%
- survival relative to 0 uM, mean of the four experiments (Brca1-WT MEFs; RTx-161 5 uM): 95.93%
- survival relative to 0 uM, mean of the four experiments (Brca1-WT MEFs; RTx-161 10 uM): 94.14%
- survival relative to 0 uM, mean of the four experiments (Brca1-WT MEFs; RTx-161 20 uM): 93.74%
- pooled Average (normalized) (Brca1^CC/CC MEFs; RTX-161 2.5 micro M): 50.51
- Normalized (Brca1^CC/CC MEFs; RTX-161 2.5 micro M): 61.5322 and 50 and 40
- Normalized (Brca1^CC/CC MEFs; RTX-161 5 micro M): 48.9756 and 28.3333 and 33.3333
- pooled Average (normalized) (Brca1^CC/CC MEFs; RTX-161 10 micro M): 33.4
- pooled Average (normalized) (Brca1^CC/CC MEFs; RTX-161 20 micro M): 18.83
- survival relative to 0 uM (Brca1^CC/CC MEFs; RTx-161 1.25 uM): 84.85% and 90.38%
- survival relative to 0 uM (Brca1^CC/CC MEFs; RTx-161 2.5 uM): 72.73% and 53.85%
- survival relative to 0 uM (Brca1^CC/CC MEFs; RTx-161 5 uM): 60.61% and 50.00%
- survival relative to 0 uM (Brca1^CC/CC MEFs; RTx-161 10 uM): 51.52% and 57.69%
- survival relative to 0 uM (Brca1^CC/CC MEFs; RTx-161 20 uM): 39.39% and 48.08%
- survival relative to 0 uM, mean of the four experiments (Brca1^CC/CC MEFs; RTx-161 1.25 uM): 86.23%
- survival relative to 0 uM, mean of the four experiments (Brca1^CC/CC MEFs; RTx-161 2.5 uM): 67.71%
- survival relative to 0 uM, mean of the four experiments (Brca1^CC/CC MEFs; RTx-161 5 uM): 56.39%
- survival relative to 0 uM, mean of the four experiments (Brca1^CC/CC MEFs; RTx-161 10 uM): 54.03%
- survival relative to 0 uM, mean of the four experiments (Brca1^CC/CC MEFs; RTx-161 20 uM): 47.47%
- selective killing of Brca1^cc/cc MEFs (Brca1^CC/CC MEFs; versus Brca1-WT MEFs): selective killing
- survival relative to 0 uM [1, 2]: 105.26% and 120.00%
- survival relative to 0 uM ([1]; 150 cells/well, RTx-161 2.5 uM): 73.68% and 115.00%
- survival relative to 0 uM ([1]; 150 cells/well, RTx-161 5 uM): 89.47% and 105.00%
- survival relative to 0 uM ([1]; 150 cells/well, RTx-161 10 uM): 94.74% and 95.00%
- survival relative to 0 uM ([1]; 150 cells/well, RTx-161 20 uM): 73.68% and 90.00%
- survival relative to 0 uM [1, 3]: 106.67% and 94.44%
- survival relative to 0 uM ([1]; 300 cells/well, RTx-161 2.5 uM): 83.33%
- survival relative to 0 uM ([1]; 300 cells/well, RTx-161 5 uM): 83.33% and 86.11%
- survival relative to 0 uM ([1]; 300 cells/well, RTx-161 10 uM): 86.67% and 94.44%
- survival relative to 0 uM ([1]; 300 cells/well, RTx-161 20 uM): 80.00% and 83.33%
- survival relative to 0 uM, mean of the four experiments ([1]; RTx-161 1.25 uM): 106.59%
- survival relative to 0 uM, mean of the four experiments ([1]; RTx-161 2.5 uM): 88.84%
- survival relative to 0 uM, mean of the four experiments ([1]; RTx-161 5 uM): 90.98%
- survival relative to 0 uM, mean of the four experiments ([1]; RTx-161 10 uM): 92.71%
- survival relative to 0 uM, mean of the four experiments ([1]; RTx-161 20 uM): 81.75%
- sensitivity of Brca1^CC/CC;Polq^-/- cells ([1]; compared to Brca1^CC/CC cells): resistant
- % Full Extension (Polε; Pol Epsilon): 91.14%
- % Inhibition Compared to Control (Polε; Pol Epsilon): -0.19%
- % Relative Maximum Extension (Polε; Pol Epsilon): 100.19%
- inhibition of primer extension (Polε; selectivity panel, Pol named in Supplementary Fig. 1h): no inhibition
- percent suvival (VC8 cells; RTX-161 1 micro M + ola 30.00 nano M): 0%
- percent suvival (VC8 cells; RTX-161 1 micro M, ola 0.00 nano M): 79.4521% and 92.4444% and 101.498%
- percent suvival (VC8 cells; RTX-161 3 micro M + ola 30.00 nano M): 0%
- percent suvival (VC8 cells; RTX-161 3 micro M, ola 0.00 nano M): 62.3288% and 70.2222% and 85.0187%
- combination with Olaparib (VC8 cells; clonogenic survival): significantly reduced cellular resistance to Olaparib
